Laboratory results from patent US7955852B2, “Expansion of renewable stem cell populations” (Gamida Cell Ltd., priority 2002, dated 2011).

System: primary hepatocytes
Assay: Primary hepatocyte cultures; α-fetoprotein/albumin immunostaining and Giemsa morphology
Assay type: cell-based, mice
Conditions: for oval cell population (Giemsa) / α-fetoprotein (AFP) expression vs control: 10^−5 M, three week old primary cultures, no cytokines
Experimental: Three intact livers were harvested from 3 week old VLVC female mice (Harlan Laboratories, Jerusalem, Israel), dissected and washed twice with DMEM (Beit Haemek, Israel), incubated with DMEM in the presence 0.05% collagenase for 30 minutes at 37° C., ground and passed through a 200 μm mesh sieve, yielding individual hepatocytes. Cells were washed twice and viability was ascertained with trypan blue. Cells were plated in collagen-coated, 35 mm tissue culture plates at a density of 4-×10^4 live cells/ml in F12 media (containing 15 mM Hepes, 0.1% glucose, 10 mM sodium bicarbonate, 100 units/ml penicillin-streptomycin, glutamine, 0.5 units/ml insulin, 7.5 m cg/ml hydrocortisone, and 10% fetal bovine serum). Medium was changed after 12 hours, the cells were washed twice with phosphate buffered saline (PBS) and new medium was added. Medium was changed twice a week.
Hepatocytes were also grown in the presence of Epidermal Growth Factor (EGF), Platelet-Derived Growth Factor β chain (PDGF-BB), Fibroblast growth Factors (FGF4) and Hepatocyte Growth Factor (HGF), at 20-50 ng/ml each, for the entire culturing period according to the method of Schwartz et al. (Schwartz R E, Reyes M, Koodie L, Jiang Y, Blackstad M, Lund T, Lenvik T, Johnson S, Hu W S, Verfaillie C M. Multipotent adult progenitor cells from bone marrow differentiate into functional hepatocyte-like cells. J Clin Invest. 2002; 109 (10): 1291-302). Hepatocytes were also grown in serum free medium according to the method of Runge et al. (Runge D, Runge D M, Jager D, Lubecki K A, Beer Stolz D, Karathanasis S, Kietzmann T, Strom S C, Jungermann K, Fleig W E, Michalopoulos G K. Serum-free, long-term cultures of human hepatocytes: maintenance of cell morphology, transcription factors, and liver-specific functions. Biochem Biophys Res Commun. 2000; 269(1): 46-53).
In all of the above-mentioned hepatocytes culture conditions, cells are grown in the presence or absence of the retinoic acid antagonist AGN 194310 at concentrations ranging from 10^−5 M to 10^−9 M.
After a period of 3 weeks, cultures treated with 10^−5 M antagonist were detached with 0.25% trypsin, split and replated at a 1:2 ratio. The cells were either immunostained as described below, or visualized with Giemsa staining.
Murine hepatocyte cultures supplemented with EGF and HGF were evaluated as primary cultures, or following first and second passages. First passage cultures were grown for 2 weeks, split 1:2 and immunostained 8 days later for the presence of albumin, as described below. Second passage cultures were similarly grown for 2 weeks, split 1:2, and grown for an additional week, then split 1:4 and similarly immunostained 4 days later.
Ex-vivo expanded cells and hepatocytes were stained with Giemsa stain, according to manufacturer's instructions (Shandon, Pittsburg, Pa.) for 4 minutes at room temperature, washed in buffer solution for 4 minutes and washed 3-4 times with rinse solution.
Hepatocytes were probed for expression of α-fetoprotein (AFP) using a rabbit polyclonal antibody raised against a recombinant protein of human origin that cross-reacts with AFP from mouse (H-140 Santa Cruz Technology, Santa Cruz, Calif.), and albumin using a rabbit antiserum to mouse albumin (Cappel-ICN, Aurora, Ohio). Cells were fixed in methanol at −20° C. for 10 minutes, rinsed with PBS for 5 minutes, and permeabilized with 0.1% triton-X (Sigma, Jerusalem, Israel) in PBS for 5 minutes. The cells were then washed with Tris buffer saline (TBS) for 5 minutes and incubated with 1% bovine serum albumin (BSA) in PBS for 10 minutes. Endogeneous peroxidases were inactivated by incubation with peroxidase block (Envision, Dako, Carpinteria, Calif.) for 5 minutes, at room temperature. Cells were incubated with antibodies raised in rabbit against mouse albumin (at a dilution of 1:100); or against α-fetoprotein (at a dilution of 1:25) for 30 minutes. […]

[1] = listed as retinoic acid antagonist

CCc1ccc(C2=CC(C)(C)Sc3ccc(C#Cc4ccc(C(=O)O)cc4)cc32)cc1 [AGN 194310, 4-[[4-(4-ethylphenyl)-2,2-dimethyl-(2H)-thiochroman-6-yl]-ethynyl]benzoic acid]
number of hepatocytes in second passage cultures vs controls (10^−5 M to 10^−7 M, second passage, EGF and HGF supplemented): Significantly greater numbers of hepatocytes | oval cell population (Giemsa): marked increase | α-fetoprotein (AFP) expression vs control: marked increase | oval cell population (Giemsa) [1]: large population | α-fetoprotein (AFP) expression vs control [1]: increase | oval cells in first passage cultures (first passage, EGF and HGF supplemented): numerous islets of oval cells | α-fetoprotein staining (three weeks old primary cultures supplemented with EGF and HGF): Significant strong AFP staining
